For 8 molecules, IC50 results are on record in patent US11702422B2, “Imidazopyridazines as modulators of IL-17” (Janssen Pharmaceutica NV, priority 2020, dated 2023).

pIC50: −log10 of the molar value.

The target of assay [1] is IL-17A(FLAG-Tagged): IL-17RA(His-Tagged) (Homo sapiens, UniProt Q16552, K93Q). Kind of assay: IL-17A(FLAG-Tagged): IL-17RA(His-Tagged) Binding Disruption Eu-HTRF Assay. To be noted: IL-17A/IL-17RA binding disruption, simple average if tested more than once. The procedure, abridged: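 IC50 comes from a one-site competition fit of the HTRF 665/620 nm ratio. Compound dilutions (2-fold, 22 points) were held 1 h rt with FLAG-tagged IL-17A dimer, then His-tagged IL-17RA plus Eu-cryptate anti-FLAG and D2 anti-His antibodies were added for 2 h rt.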
Chain of UniProt Q16552 (Q16552 with tags, fused parts or gaps K93Q): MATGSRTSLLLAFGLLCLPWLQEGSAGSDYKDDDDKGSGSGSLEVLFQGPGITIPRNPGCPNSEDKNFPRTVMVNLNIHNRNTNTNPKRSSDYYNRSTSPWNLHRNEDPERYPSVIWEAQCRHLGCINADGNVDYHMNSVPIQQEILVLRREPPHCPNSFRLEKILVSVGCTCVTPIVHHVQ
A general note: In TR-FRET formats the signal depends on donor and acceptor labels being close together.

The test system of assay [2] is IL-17A-induced G-CSF production in human normal keratinocyte (NHK). As to the kind of experiment: NHK Assay: IL-17A-induced G-CSF production in human normal keratinocytes. It is filed as cell-based. The note with it: Homo sapiens, Keratinocyte, 24 h, adult normal human keratinocytes, IL-17A 5 ng/mL, simple average if tested more than once. The procedure, abridged:
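G-CSF released by primary adult human keratinocytes after 24 h at 37° C was quantified by HTRF via standard curve to give IC50. Stimulus was 5 ng/mL IL-17A pre-mixed 1 h at rt with compound dilutions, in 5% FBS and 0.2% DMSO. Cell viability was assessed in parallel with CellTiter-Glo.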

Broadly, the pIC50 is the IC50 on a negative log10 scale, so that one unit is a factor of ten. Take `N#Cc1ccnc(C(=O)N[C@H](c2cn3ncc([C@H](NC(=O)CCC(F)(F)F)C4CC4)cc3n2)C2CCC(F)(F)CC2)c1` [Example 461, 4-Cyano-N—((S)-(7-((R)-cyclopropyl(4,4,4-trifluorobutanamido)methyl)imidazo[1,2-b]pyridazin-2-yl)(4,4-difluorocyclohexyl)methyl)picolinamide]: the negative logarithm of the IC50 (pIC50) in assay [1] is 5.80; in assay [2] it was under 4.70.
The like results for `Cn1nnnc1C(=O)N[C@H](c1cn2ncc([C@H](NC(=O)CCC(F)(F)F)C3CC3)cc2n1)C1CCC(F)(F)CC1` [Example 468, N—((S)-(7-((R)-Cyclopropyl(4,4,4-trifluorobutanamido)methyl)imidazo[1,2-b]pyridazin-2-yl)(4,4-difluorocyclohexyl)methyl)-1-methyl-1H-tetrazole-5-carboxamide] were, in that order, 6.12 and 5.77.
The like results for `Cc1nocc1C(=O)N[C@H](c1cn2ncc(C(C)NC(=O)CCC(F)(F)F)cc2n1)C1CCC(F)(F)CC1` (stereo partly drawn) [Example 153, N-((1S)-(4,4-Difluorocyclohexyl)(7-(1-(4,4,4-trifluorobutanamido)ethyl)imidazo[1,2-b]pyridazin-2-yl)methyl)-3-methylisoxazole-4-carboxamide] were, in that order, 6.38 and 6.32.
The like results for `COc1cncc(C(=O)N[C@H](c2cn3ncc([C@H](NC(=O)CCC(F)(F)F)C4CC4)cc3n2)C2CCC(F)(F)CC2)c1` [Example 189, N—((S)-(7-((R)-Cyclopropyl(4,4,4-trifluorobutanamido)methyl)imidazo[1,2-b]pyridazin-2-yl)(4,4-difluorocyclohexyl)methyl)-5-methoxynicotinamide] were, in that order, 6.64 and 6.09.
Turning to `N#CC1(C(NC(=O)CC2(C(F)(F)F)CC2)c2cnn3cc([C@@H](NC(=O)c4nonc4C4CC4)C4CCC(F)(F)CC4)nc3c2)CC1` (single isomer, unassigned) [Example 433, N—((S)-(7-((R*)-(1-Cyanocyclopropyl)(2-(1-(trifluoromethyl)cyclopropyl)acetamido)methyl)imidazo[1,2-b]pyridazin-2-yl)(4,4-difluorocyclohexyl)methyl)-4-cyclopropyl-1,2,5-oxadiazole-3-carboxamide], the pIC50 in assay [1] was 5.89; in assay [2] it was under 4.70.
For `CC(C)(C[C@H](NC(=O)c1nonc1C1CC1)c1cn2ncc([C@H](NC(=O)CC3CC(F)(F)C3)C3CC3)cc2n1)C(F)(F)F` [Example 542, 4-Cyclopropyl-N—((S)-1-(7-((R)-cyclopropyl(2-(3,3-difluorocyclobutyl)acetamido)methyl)imidazo[1,2-b]pyridazin-2-yl)-4,4,4-trifluoro-3,3-dimethylbutyl)-1,2,5-oxadiazole-3-carboxamide], in that order: 7.28 and 7.34.
The like results for `Cc1cc(C(=O)N[C@H](c2cn3ncc([C@H](NC(=O)CCC(F)(F)F)C4CC4)cc3n2)C2CCC(F)(F)CC2)ncn1` [Example 218, N—((S)-(7-((R)-Cyclopropyl(4,4,4-trifluorobutanamido)methyl)imidazo[1,2-b]pyridazin-2-yl)(4,4-difluorocyclohexyl)methyl)-6-methylpyrimidine-4-carboxamide] were, in that order, 5.70 and under 4.70.
The like results for `O=C(CC1CC(F)(F)C1)N[C@@H](c1cnn2cc([C@@H](NC(=O)c3conc3OCC(F)F)C3CCC(F)(F)CC3)nc2c1)C1CC1` [Example 293, N—((S)-(7-((R)-Cyclopropyl(2-(3,3-difluorocyclobutyl)acetamido)methyl)imidazo[1,2-b]pyridazin-2-yl)(4,4-difluorocyclohexyl)methyl)-3-(2,2-difluoroethoxy)isoxazole-4-carboxamide] were, in that order, 6.80 and 6.27.
